In patent publication US20060189565A1, “Pharmaceutical compositions of ganciclovir” (priority 2002, published 2006):

Assays:
[1] = tested on: herpes simplex virus (HSV); conditions: human clinical studies; cited from earlier work
[2] = Accelerated stability testing of packaged final product; assay type: physicochemical; conditions: 40° C., 75% RH
Method: Accelerated stability testing was conducted by varying the water content of ganciclovir between 1.99% w/w and 2.54% w/w. The packages of final product were stored at 40° C. and 75% RH for a period of three months. At predetermined intervals, some of the packages were opened and analyzed to determine the amount of active ingredient, related impurities (RS), and water content present in the formulation.

[3] = tested on: cytomegalovirus (CMV); conditions: human clinical studies; cited from earlier work
[4] = Moisture uptake by ganciclovir in an open Petri dish; assay type: physicochemical; conditions: ganciclovir containing 1.99% water, 25° C., 60% RH
Method: Different formulations containing variable percentages of water were subjected to stability and moisture uptake studies. For example, ganciclovir containing 1.99% water content was subjected to moisture uptake at 25° C. and 60% relative humidity (RH) in an open Petri dish and the increase in weight was monitored.

Nc1nc2c(ncn2COC(CO)CO)c(=O)[nH]1 [ganciclovir, 9-(1,3-dihydroxy-2-propoxymethyl) guanine]
activity against herpes simplex virus (HSV) [1]: active | initial purity retained ([2]; after one month): at least 97% | purity lost ([2]; after one month): less than about three percent | initial purity retained ([2]; after three months): at least 87% | purity lost ([2]; after three months): less than about five percent | initial purity retained ([2]; after two months): at least 96% | purity lost ([2]; after two months): less than about four percent | activity against cytomegalovirus (CMV) [3]: active | Increase in moisture during storage [4]: no appreciable increase in moisture during storage | Moisture gain ([4]; 2.0 hrs): 0.12 % w/w | Moisture gain ([4]; 4.0 hrs): 0.38 % w/w | Moisture gain ([4]; 8.0 hrs): 0.46 % w/w | Moisture gain ([4]; 48.0 hrs): 0.49 % w/w | Moisture gain ([4]; 168.0 hrs (1 week)): 0.50 % w/w
